Laboratory results taken from ChEMBL document CHEMBL1141681, “Bradykinin B1 receptor antagonists: an alpha-hydroxy amide with an improved metabolism profile” (Bioorg Med Chem Lett, 2008).

What was measured:
MDR1 (human) = assay: (§1) Apparent permeability across pig L-MDR1 cells overexpressing human MDR1 at 5 uM after 3 hrs by LC/MS/MS analysis; type: ADME, cell-based, Sus scrofa; conditions: LLC-PK1
[1] = Clearance in mongrel dog at 3 mg/kg, po and 1 mg/kg, iv; type: ADME, organism-based, Canis lupus familiaris; conditions: in vivo
B1 bradykinin receptor = molecular target: T1, B1 bradykinin receptor (Homo sapiens, UniProt P46663); assay: Displacement of [3H]des-arg10leu9kallidin from human bradykinin B1 receptor expressed in CHO cells by Wallac beta-plate scintillation counting; type: cell-based
T1 sequence (P46663 whole entry): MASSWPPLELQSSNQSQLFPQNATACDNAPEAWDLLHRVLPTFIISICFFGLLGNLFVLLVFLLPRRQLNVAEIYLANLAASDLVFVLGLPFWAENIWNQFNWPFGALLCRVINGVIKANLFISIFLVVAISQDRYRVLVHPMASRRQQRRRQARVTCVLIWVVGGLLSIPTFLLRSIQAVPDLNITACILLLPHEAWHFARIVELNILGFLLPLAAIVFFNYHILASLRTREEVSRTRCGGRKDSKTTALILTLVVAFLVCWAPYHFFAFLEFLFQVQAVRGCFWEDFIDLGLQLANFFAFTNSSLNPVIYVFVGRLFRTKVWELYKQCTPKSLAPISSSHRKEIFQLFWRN

[2] = Ratio of drug level in brain to plasma of african green monkey at 2 mg/kg, iv after 30 mins by LC/MS/MS analysis; type: ADME, organism-based; design: dose 2 mg/kg, route intravenous; conditions: chlorocebus aethiops, brain and plasma
[3] = Half life in Sprague-Dawley rat at 10 mg/kg, po and 2 mg/kg, iv; type: ADME, organism-based; conditions: in vivo
[4] = Oral bioavailability in Sprague-Dawley rat at 10 mg/kg; type: ADME, organism-based; conditions: in vivo
[5] = (§2) Half life in mongrel dog at 3 mg/kg, po and 1 mg/kg, iv; type: ADME, organism-based, Canis lupus familiaris; conditions: mongrel, in vivo
Rattus norvegicus = assay: Ex vivo displacement of [35S]N-{2-[4-(4,5-dihydro-1H-imidazol-2-yl)phenyl]ethyl}-2-[(2R)-1-(2-naphthylsulfonyl)-3-oxo-1,2,3,4-tetrahydroquinoxalin-2-yl]acetamide from human bradykinin B1 receptor expressed in iv dosed Sprague-Dawley rat brain by liquid scintillation counting; type: functional, organism-based
[6] = Oral bioavailability in mongrel dog at 3 mg/kg; type: ADME, organism-based, Canis lupus familiaris; conditions: in vivo
[7] = Ratio of permeability from basolateral to apical side to apical to basolateral side in pig L-MDR1 cells overexpressing human MDR1 at 5 uM after 3 hrs by LC/MS/MS analysis; type: ADME, cell-based, Sus scrofa; conditions: l-mdr1, 3 h
[8] = Clearance in Sprague-Dawley rat at 10 mg/kg, po and 2 mg/kg, iv; type: ADME, organism-based; conditions: in vivo
[9] = as §1; type: ADME, cell-based, Sus scrofa; conditions: l-mdr1, 3 h, 5 µM, 3 h
Canis familiaris = assay: as §2; type: ADME, organism-based, Canis lupus familiaris; conditions: in vivo

Row | Papp at 3 h, 5 µM (MDR1 (human)) [×10⁻⁶ cm/s] | clearance [1] [mL/min/kg] | Ki (B1 bradykinin receptor) [nM] | Kp at 0.5 h [2] | half-life [3] [h] | bioavailability [4] [%] | half-life [5] [h] | Ki (Rattus norvegicus) [nM] | bioavailability [6] [%] | Ratio [7] | clearance [8] [mL/min/kg] | Papp [9] [×10⁻⁶ cm/s] | t1/2 (Canis familiaris) [h] | Ratio ([7]; 3 h) | SMILES
1 | 27 | 0.5 | – | – | – | – | – | – | – | – | – | – | – | – | Cc1nc(-c2c(F)cc(Cl)cc2-c2cnc([C@@H](C)NC(=O)[C@@](C)(O)C(F)(F)F)c(F)c2)no1
2 | 31 | 1 | 0.41 | 0.63 | 5.6 | 62 | 20.3 | 140 | 91 | 2 | 2.2 | – | – | – | C[C@@H](NC(=O)C1(O)CCC(F)(F)CC1)c1ncc(-c2cc(Cl)cc(F)c2-c2nnn(C)n2)cc1F
3 | 24 | – | 0.96 | – | – | – | – | – | – | 8.2 | – | – | – | – | C[C@@H](NC(=O)C1(O)CCOCC1)c1ncc(-c2cc(Cl)cc(F)c2-c2nnn(C)n2)cc1F
4 | – | – | 0.67 | 0.55 | 4.1 | 96 | – | 120 | 85 | – | 5.2 | 32 | 19 | 1.9 | CC(NC(=O)C1(O)CCC(F)(F)C1)c1ncc(-c2cc(Cl)cc(F)c2-c2nnn(C)n2)cc1F (stereo in doubt; 11g)
5 | 24 | 2.3 | 1.6 | – | – | – | 3.1 | – | – | 14.3 | – | – | – | – | C[C@@H](NC(=O)C1(O)CC[S+]([O-])C1)c1ncc(-c2cc(Cl)cc(F)c2-c2nnn(C)n2)cc1F (stereo partly specified)
6 | – | – | 0.8 | – | – | – | – | – | – | – | – | – | – | – | C[C@@H](NC(=O)[C@@](C)(O)C(F)(F)F)c1ncc(-c2cc(Cl)cc(F)c2-c2noc(CO)n2)cc1F
7 | 31 | 0.3 | 0.67 | – | – | – | 9.8 | – | – | 16 | – | – | – | – | C[C@@H](NC(=O)C1(O)CCC(=O)C1)c1ncc(-c2cc(Cl)cc(F)c2-c2nnn(C)n2)cc1F (stereo partly specified)
8 | 22 | 0.5 | 0.69 | – | – | – | 9.9 | – | – | 29 | – | – | – | – | C[C@@H](NC(=O)C1(O)CCS(=O)(=O)C1)c1ncc(-c2cc(Cl)cc(F)c2-c2nnn(C)n2)cc1F (stereo partly specified)
9 | 29 | 0.6 | 0.48 | – | 5.5 | 26 | 4.7 | 214 | – | 2.1 | 10 | – | – | – | C[C@@H](NC(=O)C1(O)CCCC1)c1ncc(-c2cc(Cl)cc(F)c2-c2nnn(C)n2)cc1F
10 | 29 | 0.3 | 1 | – | – | – | – | – | – | – | – | – | 3 | 2.6 | CC(NC(=O)C1(O)CCC(F)(F)C1)c1ncc(-c2cc(Cl)cc(F)c2-c2nnn(C)n2)cc1F (stereo in doubt; 11f)
11 | 31 | 3.2 | 0.39 | – | – | – | 5.4 | – | – | 2.9 | – | – | – | – | C[C@@H](NC(=O)C1(O)CCSC1)c1ncc(-c2cc(Cl)cc(F)c2-c2nnn(C)n2)cc1F (stereo partly specified)
